Source: ChEMBL document CHEMBL3137667, “[Drug-induced liver injury; fourteenth updated edition of the bibliographic database of liver injuries and related drugs]” (Gastroenterol Clin Biol, 2004)

Key:
[1] = human
[2] = Highest frequency of moderate liver toxicity observed during clinical trials, expressed as a percentage. [column '% BIOL' in source]; details: human
[3] = human; remark: listed apart in the source
[4] = human; remark: listed apart in the source
[5] = human; remark: listed apart in the source
[6] = Highest frequency of acute liver toxicity observed during clinical trials, expressed as a percentage. [column '% AIGUE' in source]; details: human
[7] = human; remark: listed apart in the source
[8] = human, serum
[9] = human; remark: listed apart in the source
[10] = human; remark: listed apart in the source
[11] = human, serum, 4383 h
[12] = human; remark: listed apart in the source
[13] = human, serum; remark: listed apart in the source
[14] = human; remark: listed apart in the source
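Throughout, for Hepatotoxicity (association with vascular disease): count of indexed literature references reporting vascular liver injury in humans, e.g. peliosis hepatitis, hepatic veno-occlusive disease or Budd-Chiari syndrome.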
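Throughout, for Hepatotoxicity (benign tumour): value is a count of indexed literature references citing a benign tumour confirmed by histopathology.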
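Throughout, for Hepatotoxicity (choleostasis): human cholestatic liver injury, shown by histopathology or by peak ALT or AST elevation over alkaline phosphatase ratio below 2, value counts indexed literature reports.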
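Throughout, for Hepatotoxicity (chronic liver disease): chronic liver injury confirmed by histopathology or persistently raised serum aminotransferase activity beyond 6 months, value given as the count of indexed literature references.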
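Throughout, for Hepatotoxicity (cirrhosis): value is a count of indexed literature references reporting cirrhosis confirmed by histopathology.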
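Throughout, for Hepatotoxicity (cytolytic): human cytolytic liver injury, shown by histopathology or by a ratio above 5 of peak ALT or AST elevation to alkaline phosphatase elevation, value counts indexed references.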
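Throughout, for Hepatotoxicity (granulomatous hepatitis): value is a count of indexed literature references reporting granulomatous liver disease confirmed by histopathology.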
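Throughout, for Hepatotoxicity (malignant tumour): malignant tumour confirmed by histopathology, value gives the count of indexed literature references reporting it.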
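Throughout, for Hepatotoxicity (severe hepatitis): human clinical data: severe hepatitis, meaning potentially life-threatening liver failure or clinically observed cases, the value counts how many indexed literature references report it.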
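Throughout, for Hepatotoxicity (steatosis): steatosis confirmed by histopathology, value is the count of indexed references.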

Row | SMILES | Hepatotoxicity (severe hepatitis) [1] | Hepatotoxicity (moderate) [2] [%] | Hepatotoxicity (granulomatous hepatitis) [3] | Hepatotoxicity (association with vascular disease) [4] | Hepatotoxicity (cytolytic) [5] | Hepatotoxicity (acute) [6] [%] | Hepatotoxicity (steatosis) [7] | Hepatotoxicity (moderate) [8] | Hepatotoxicity (malignant tumour) [9] | Hepatotoxicity (choleostasis) [10] | Hepatotoxicity (chronic liver disease) [11] | Hepatotoxicity (cirrhosis) [12] | Hepatotoxicity (acute) [13] | Hepatotoxicity (benign tumour) [14]
1 | CCCCCN(C)CCC(O)(P(=O)(O)O)P(=O)(O)O [IBANDRONIC ACID] | 0 | 0.6 | 0 | 0 | 0 | 0 | 0 | 1 | 0 | 0 | 0 | 0 | 0 | 0
2 | CC(C)(N)C(=O)N[C@H](COCc1ccccc1)C(=O)N1CCC2(CC1)CN(S(C)(=O)=O)c1ccccc12 [IBUTAMOREN] | 0 | 21.4 | 0 | 0 | 0 | 0 | 0 | 1 | 0 | 0 | 0 | 0 | 0 | 0
3 | COC1=C(OC)C(=O)C(CCCCCCCCCCO)=C(C)C1=O [IDEBENONE] | 0 | 2.3 | 0 | 0 | 0 | 0 | 0 | 1 | 0 | 0 | 0 | 0 | 0 | 0
4 | O=P1(NCCCl)OCCCN1CCCl (centres undefined) [IFOSFAMIDE] | 1 | 3.8 | 0 | 0 | 2 | 6 | 0 | 3 | 0 | 0 | 0 | 0 | 2 | 0
5 | Cc1cnc(NCCCN(C)C)c2c1[nH]c1ccc3cc(O)ccc3c12 [INTOPLICINE] | 0 | 0 | 0 | 0 | 0 | 3.8 | 0 | 0 | 0 | 0 | 0 | 0 | 1 | 0
6 | O=C(CCOCCOCCOCCOCCC(=O)Nc1c(I)cc(I)c(C(=O)O)c1I)Nc1c(I)cc(I)c(C(=O)O)c1I [IODOXAMIC ACID] | 0 | 0 | 0 | 0 | 0 | 0 | 0 | 1 | 0 | 0 | 0 | 0 | 1 | 0
7 | O=C(COCC(=O)Nc1c(I)cc(I)c(C(=O)O)c1I)Nc1c(I)cc(I)c(C(=O)O)c1I [IOGLYCAMIC ACID] | 0 | 0 | 0 | 0 | 0 | 0 | 0 | 1 | 0 | 0 | 0 | 0 | 0 | 0
8 | O=C(COCCOCCOCC(=O)Nc1c(I)cc(I)c(C(=O)O)c1I)Nc1c(I)cc(I)c(C(=O)O)c1I [IOTROXIC ACID] | 0 | 0 | 0 | 0 | 0 | 0 | 0 | 1 | 0 | 0 | 0 | 0 | 0 | 0
9 | CN[C@@H]1[C@@H](O)[C@@H](O[C@@H]2[C@@H](O)[C@H](O[C@H]3O[C@H](CN)[C@@H](O)[C@H](O)[C@H]3O)[C@@H](N)C[C@H]2NC(=O)[C@@H](O)CN)OC[C@]1(C)O [ISEPAMICIN] | 0 | 30 | 0 | 0 | 0 | 0 | 0 | 22 | 0 | 0 | 0 | 0 | 0 | 0
10 | CC(=O)OCC(=O)[C@@]1(O)CC[C@H]2[C@@H]3CCC4=CC(=O)C=C[C@]4(C)[C@@]3(F)[C@@H](O)C[C@@]21C [ISOFLUPREDONE ACETATE] | 0 | 0 | 0 | 0 | 0 | 0 | 0 | 2 | 0 | 0 | 0 | 0 | 0 | 0
11 | COC(=O)C1=C(C)NC(C)=C(C(=O)OC(C)C)C1c1cccc2nonc12 (centres undefined) [ISRADIPINE] | 0 | 8.3 | 0 | 0 | 0 | 0 | 0 | 6 | 0 | 0 | 0 | 0 | 0 | 0
